{
  "source": "patent US10449135B2",
  "about": "“Solublizing agents for UV filters in cosmetic formulations” (BASF SE, priority 2014, dated 2019)",
  "data": [
    {"assay": "Solubility tests of UV filters in the solubilizing agent", "type": "physicochemical", "settings": "solvent: morpholine amide of formula (AM-01); stirred seven days at 25° C.; concentration by UV/Vis-spectrometry", "experimental": "2 ml of the solubilizing agent are filled into a 20 ml vial with cap. Afterwards 0.02 g (1%) of the respective substance (UV Filter) are weighed and added to the solvent. The vial is placed into a thermostat-controlled water bath, wherein the suspension/solution is stirred during seven days at 25° C. If the amount of substance put into the solubilizing agent is fully soluble, additional substance is added until precipitation can be observed. After seven days, the sample is centrifuged for 30 minutes at 13000 rpm at 25° C. The supernatant is transferred into a small beaker. In case the sample is still turbid, it is filtered through a 0.2 μm non-steril Membrex 25 PET filter. Clear solutions must not be filtered. When a clear solution is obtained, the concentration of the substance is determined with UV/Vis-spectrometry. For this purpose the sample may be diluted with a suitable solvent or, in case of lower concentrations, may be measured as is. In order to evaluate the concentration from the UV-spectroscopic results, the extinction coefficient is needed, which is determined independently with a solvent of similar polarity like that one used for dilution of the saturated solutions. The solubility can be calculated using the equation of the Lambert-Beer-Law.", "units": {"Solubility of UV filter in solubilizing agent": "%"}, "values": [
      {"compound": "CCCCC(CC)COC(=O)c1ccc(Nc2nc(Nc3ccc(C(=O)OCC(CC)CCCC)cc3)nc(Nc3ccc(C(=O)OCC(CC)CCCC)cc3)n2)cc1", "note": "(stereo not drawn) [TAT-02]", "Solubility of UV filter in solubilizing agent": 45},
      {"compound": "CCCCCCOC(=O)c1ccccc1C(=O)c1ccc(N(CC)CC)cc1O", "note": "[BPH-02]", "Solubility of UV filter in solubilizing agent": ">40"},
      {"compound": "CCCCC(CC)COc1ccc(-c2nc(-c3ccc(OC)cc3)nc(-c3ccc(OCC(CC)CCCC)cc3O)n2)c(O)c1", "note": "(stereo not drawn) [HTP-02]", "Solubility of UV filter in solubilizing agent": 15}
    ]}
  ]
}
